Each structure is given as a SMILES string.

This test deals with T1, PIN1 (Homo sapiens, UniProt Q13526).
T1 construct: recombinant human PIN1
Kind of test: trypsin-coupled PPIase assay (kinact/Ki; IC50 […]); LC/MS and MALDI MS/MS show a +[…] Da adduct on C113, absent in C113A. The test is classed as biochemical. The note with it: read-out: Ki.

T1 sequence (Q13526 whole entry): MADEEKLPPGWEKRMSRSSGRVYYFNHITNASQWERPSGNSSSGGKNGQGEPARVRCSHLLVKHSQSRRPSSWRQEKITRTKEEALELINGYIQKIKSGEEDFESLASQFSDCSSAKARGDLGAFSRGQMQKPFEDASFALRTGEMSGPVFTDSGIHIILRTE

Consider `CC(C)(C)c1ccc(S(=O)(=O)/N=C2/C=C(SCC(=O)O)C(=O)c3ccccc32)cc1` [compound 1], for which the KI (inactivation) was 625 ± 325 nM.
